Structure (SMILES)	logP
C=CCSc1nc(Sc2c([N+](=O)[O-])ncn2C)c2c(ncn2C)n1	2.43
Cn1cnc([N+](=O)[O-])c1Sc1nc(=S)[nH]c2ncn(C)c12	1.19
Cn1cnc([N+](=O)[O-])c1Sc1nc2ncn(C)c2c(=S)[nH]1	1.26
Cn1cnc([N+](=O)[O-])c1Sc1nc(Sc2c([N+](=O)[O-])ncn2C)c2c(ncn2C)n1	1.68
Cn1cnc([N+](=O)[O-])c1Sc1nc(=O)[nH]c2ncn(C)c12	1.12
Cn1cnc([N+](=O)[O-])c1Sc1nc(OCc2ccccc2)nc2ncn(C)c12	2.67
CSc1nc(Sc2c([N+](=O)[O-])ncn2C)c2c(ncn2C)n1	1.6
CN1C=NC([N+](=O)[O-])C1Sc1nc2ncn(C)c2c(=O)[nH]1 (configuration not stated)	1.21
C=CCOc1nc(Sc2c([N+](=O)[O-])ncn2C)c2c(ncn2C)n1	2.02
COc1nc(Sc2c([N+](=O)[O-])ncn2C)c2c(ncn2C)n1	1.45
Cn1cnc([N+](=O)[O-])c1Sc1nc(Cl)nc2ncn(C)c12	1.5
Cn1cnc([N+](=O)[O-])c1Sc1nc(SCc2ccccc2)nc2ncn(C)c12	2.91

Reference: the SangsterLogP compilation
